Results reported in publication PMC4450297, “Screening Active Compounds from Garcinia Species Native to China Reveals Novel Compounds Targeting the STAT/JAK Signaling Pathway” (BioMed Research International, 2015).

Legend:
Experiment in all cases: Cell panel screen (CellTiter-Glo)
Format in all cases: cell-based, human
A498 = A498 (listed under Lung), 20 micromolar, 72 hrs
How it was run: (§1)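 ATCC lines in supplier media with 10% FBS, seeded and cultured overnight at 37° C., then exposed to compound at 20 μM final for 72 h. CellTiter-Glo luminescence; % growth inhibition relative to DMSO-treated controls after subtracting cell-free background.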

A704 = A704 (Kidney), 20 micromolar, 72 hrs
How it was run: as §1

BT-474 = BT-474 (Breast), 20 micromolar, 72 hrs
How it was run: as §1

BT-549 = BT-549 (Breast), 20 micromolar, 72 hrs
How it was run: as §1

Bel-7402 = Bel-7402 (Liver), 20 micromolar, 72 hrs
How it was run: as §1

C3A = C3A (Liver), 20 micromolar, 72 hrs
How it was run: as §1

C8166 = C8166 (Leukemia), 20 micromolar, 72 hrs
How it was run: as §1

CCF-STTG1 = CCF-STTG1 (Brain), 20 micromolar, 72 hrs
How it was run: as §1

CW-2 = CW-2 (Colon), 20 micromolar, 72 hrs
How it was run: as §1

ChaGo-K-1 = ChaGo-K-1 (Lung), 20 micromolar, 72 hrs
How it was run: as §1

Colo 205 = details: Colo 205, 20 micromolar, 72 hrs
How it was run: as §1

HCC1395 = HCC1395 (Breast), 20 micromolar, 72 hrs
How it was run: as §1

HCC1569 = HCC1569 (Breast), 20 micromolar, 72 hrs
How it was run: as §1

HCC1599 = HCC1599 (Breast), 20 micromolar, 72 hrs
How it was run: as §1

HCC1937 = HCC1937 (Breast), 20 micromolar, 72 hrs
How it was run: as §1

HEC-1-A = HEC-1-A (Uterus), 20 micromolar, 72 hrs
How it was run: as §1

HGC-27 = HGC-27 (Stomach), 20 micromolar, 72 hrs
How it was run: as §1

HPAF-II = HPAF-II (Pancreas), 20 micromolar, 72 hrs
How it was run: as §1

HT-1197 = HT-1197 (Urinary bladder), 20 micromolar, 72 hrs
How it was run: as §1

J82 = J82 (Urinary bladder), 20 micromolar, 72 hrs
How it was run: as §1

M059J = M059J (Brain), 20 micromolar, 72 hrs
How it was run: as §1

MSTO-211-H = MSTO-211-H (Lung), 20 micromolar, 72 hrs
How it was run: as §1

NCI-H1623 = NCI-H1623 (Lung), 20 micromolar, 72 hrs
How it was run: as §1

NCI-H1694 = NCI-H1694 (Lung), 20 micromolar, 72 hrs
How it was run: as §1

NCI-H1770 = NCI-H1770 (Lung), 20 micromolar, 72 hrs
How it was run: as §1

NCI-H2347 = NCI-H2347 (Lung), 20 micromolar, 72 hrs
How it was run: as §1

NCI-H2405 = NCI-H2405 (Lung), 20 micromolar, 72 hrs
How it was run: as §1

NCI-H28 = NCI-H28 (Lung), 20 micromolar, 72 hrs
How it was run: as §1

NCI-H524 = NCI-H524 (Lung), 20 micromolar, 72 hrs
How it was run: as §1

Panc 03.27 = Panc 03.27 (Pancreas), 20 micromolar, 72 hrs
How it was run: as §1

RL95 = RL95 (Uterus), 20 micromolar, 72 hrs
How it was run: as §1

SW13 = SW13 (Adrenal gland), 20 micromolar, 72 hrs
How it was run: as §1

T47D = T47D (Breast), 20 micromolar, 72 hrs
How it was run: as §1

T98G = T98G (Brain), 20 micromolar, 72 hrs
How it was run: as §1

TCCSUP = TCCSUP (Urinary bladder), 20 micromolar, 72 hrs
How it was run: as §1

ZR-75-30 = ZR-75-30 (Breast), 20 micromolar, 72 hrs
How it was run: as §1

SMILES	Percent Inhibition (A498)	Percent Inhibition (A704)	Percent Inhibition (BT-474)	Percent Inhibition (BT-549)	Percent Inhibition (Bel-7402)	Percent Inhibition (C3A)	Percent Inhibition (C8166)	Percent Inhibition (CCF-STTG1)	Percent Inhibition (CW-2)	Percent Inhibition (ChaGo-K-1)	Percent Inhibition (Colo 205)	Percent Inhibition (HCC1395)	Percent Inhibition (HCC1569)	Percent Inhibition (HCC1599)	Percent Inhibition (HCC1937)	Percent Inhibition (HEC-1-A)	Percent Inhibition (HGC-27)	Percent Inhibition (HPAF-II)	Percent Inhibition (HT-1197)	Percent Inhibition (J82)	further results
CC(C)=CCc1c2c(c(O)c3c1OC14C(=CC5CC1C(C)(C)OC4(CC=C(C)C(=O)O)C5=O)C3=O)C=CC(C)(C)O2 (stereo not drawn) [GB27]	88%	98%	98%	98%	97%	98%	99%	99%	99%	98%	99%	99%	99%	99%	99%	99%	98%	98%	95%	98%	Percent Inhibition (M059J): 99%; Percent Inhibition (MSTO-211-H): 99%; Percent Inhibition (NCI-H1623): 98%; Percent Inhibition (NCI-H1694): 99%; Percent Inhibition (NCI-H1770): 99%; Percent Inhibition (NCI-H2347): 93%; Percent Inhibition (NCI-H2405): 98%; Percent Inhibition (NCI-H28): 90%; Percent Inhibition (NCI-H524): 99%; Percent Inhibition (Panc 03.27): 97%; Percent Inhibition (RL95): 98%; Percent Inhibition (SW13): 99%; Percent Inhibition (T47D): 99%; Percent Inhibition (T98G): 99%; Percent Inhibition (TCCSUP): 99%; Percent Inhibition (ZR-75-30): 99%
CCOC1C2C(=O)c3c(O)c4c(c(CC=C(C)C)c3O[C@@]23[C@H]2C[C@@H]1C(=O)[C@]3(C/C=C(/C)C(=O)O)OC2(C)C)OC(C)(CCC=C(C)C)C=C4 (stereo partly drawn) [GB19]	99%	99%	99%	99%	99%	99%	99%	99%	99%	99%	99%	99%	99%	99%	99%	99%	99%	98%	99%	99%	Percent Inhibition (M059J): 99%; Percent Inhibition (MSTO-211-H): 99%; Percent Inhibition (NCI-H1623): 99%; Percent Inhibition (NCI-H1694): 99%; Percent Inhibition (NCI-H1770): 99%; Percent Inhibition (NCI-H2347): 98%; Percent Inhibition (NCI-H2405): 99%; Percent Inhibition (NCI-H28): 99%; Percent Inhibition (NCI-H524): 99%; Percent Inhibition (Panc 03.27): 99%; Percent Inhibition (RL95): 99%; Percent Inhibition (SW13): 99%; Percent Inhibition (T47D): 99%; Percent Inhibition (T98G): 99%; Percent Inhibition (TCCSUP): 99%; Percent Inhibition (ZR-75-30): 99%
CC(C)=CCc1c2c(c(O)c3c(=O)c4c(CC=C(C)C)c(O)c(O)cc4oc13)C=CC(C)(C)O2 [bn-4, Bannaxanthone D]	84%	94%	83%	96%	94%	63%	96%	86%	97%	93%	93%	96%	92%	97%	89%	76%	86%	73%	89%	94%	Percent Inhibition (M059J): 90%; Percent Inhibition (MSTO-211-H): 94%; Percent Inhibition (NCI-H1623): 80%; Percent Inhibition (NCI-H1694): 97%; Percent Inhibition (NCI-H1770): 75%; Percent Inhibition (NCI-H2347): 53%; Percent Inhibition (NCI-H2405): 92%; Percent Inhibition (NCI-H28): 85%; Percent Inhibition (NCI-H524): 98%; Percent Inhibition (Panc 03.27): 88%; Percent Inhibition (RL95): 96%; Percent Inhibition (SW13): 94%; Percent Inhibition (T47D): 80%; Percent Inhibition (T98G): 97%; Percent Inhibition (TCCSUP): 92%; Percent Inhibition (ZR-75-30): 81%
COc1cc(O)c2c(=O)c3cc(CC=C(C)C)c(O)c(O)c3oc2c1CC=C(C)C [Go-15]	78%	92%	82%	87%	64%	60%	93%	84%	96%	11%	89%	25%	86%	62%	85%	67%	98%	72%	51%	74%	Percent Inhibition (M059J): 88%; Percent Inhibition (MSTO-211-H): 69%; Percent Inhibition (NCI-H1623): 78%; Percent Inhibition (NCI-H1694): 97%; Percent Inhibition (NCI-H1770): 75%; Percent Inhibition (NCI-H2347): 51%; Percent Inhibition (NCI-H2405): 50%; Percent Inhibition (NCI-H28): 74%; Percent Inhibition (NCI-H524): 98%; Percent Inhibition (Panc 03.27): 86%; Percent Inhibition (RL95): 94%; Percent Inhibition (SW13): 95%; Percent Inhibition (T47D): 70%; Percent Inhibition (T98G): 98%; Percent Inhibition (TCCSUP): 88%; Percent Inhibition (ZR-75-30): 83%
COc1c(CC=C(C)C)cc2c(=O)c3c(O)cc(O)cc3oc2c1OC [gl-6]	47%	27%	25%	14%	27%	41%	41%	45%	51%	59%	43%	44%	34%	42%	32%	40%	55%	36%	36%	52%	Percent Inhibition (M059J): 44%; Percent Inhibition (MSTO-211-H): 16%; Percent Inhibition (NCI-H1623): 14%; Percent Inhibition (NCI-H1694): 46%; Percent Inhibition (NCI-H1770): 23%; Percent Inhibition (NCI-H2347): 22%; Percent Inhibition (NCI-H2405): 25%; Percent Inhibition (NCI-H28): 39%; Percent Inhibition (NCI-H524): 9%; Percent Inhibition (Panc 03.27): 45%; Percent Inhibition (RL95): 46%; Percent Inhibition (SW13): 18%; Percent Inhibition (T47D): 31%; Percent Inhibition (T98G): 31%; Percent Inhibition (TCCSUP): 36%; Percent Inhibition (ZR-75-30): 90%
